Assay [1] addresses T1, E. coli SASX38 strain having pBAtPX-C with Arabidopsis thaliana wild type protoporphyrinogen oxidase gene (Arabidopsis thaliana, UniProt P55826).
T1 construct: expressed in transfected cells; host or cells: E. coli SASX38 (hemG-deficient) carrying pBAtPX-C (pBluescript SK(-))
T1 sequence (P55826 35-537): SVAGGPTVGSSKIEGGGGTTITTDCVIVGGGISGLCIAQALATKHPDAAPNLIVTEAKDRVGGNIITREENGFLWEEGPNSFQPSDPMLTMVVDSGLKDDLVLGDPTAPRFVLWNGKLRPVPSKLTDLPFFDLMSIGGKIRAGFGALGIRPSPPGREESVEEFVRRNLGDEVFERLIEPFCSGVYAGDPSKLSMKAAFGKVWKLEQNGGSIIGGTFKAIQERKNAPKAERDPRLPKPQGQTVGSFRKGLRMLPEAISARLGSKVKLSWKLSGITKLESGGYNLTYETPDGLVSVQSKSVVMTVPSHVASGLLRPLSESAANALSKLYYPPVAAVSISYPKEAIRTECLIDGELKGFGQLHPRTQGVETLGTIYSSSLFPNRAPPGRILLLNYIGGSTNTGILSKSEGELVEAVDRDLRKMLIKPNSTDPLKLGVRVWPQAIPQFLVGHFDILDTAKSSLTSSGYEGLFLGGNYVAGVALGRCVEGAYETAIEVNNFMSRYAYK
The experiment in a line: Growth inhibition of E. coli SASX38 (liquid culture with shaking). The format is cell-based. How it is done:
(§1) The E. coli SASX38 strain containing either of the above-described two kinds of plasmid was cultured with shaking in LB liquid medium containing 50 μg/ml of ampicillin at 28° C. for overnight.

The target of assay [2] is T2, E. coli SASX38 strain having pCR-HC with tobacco wild type protoporphyrinogen oxidase cDNA (Nicotiana tabacum, UniProt O24163).
T2 construct: expressed in transfected cells; host or cells: E. coli SASX38 (hemG-deficient) carrying pCR-HC
T2 sequence (O24163 51-548): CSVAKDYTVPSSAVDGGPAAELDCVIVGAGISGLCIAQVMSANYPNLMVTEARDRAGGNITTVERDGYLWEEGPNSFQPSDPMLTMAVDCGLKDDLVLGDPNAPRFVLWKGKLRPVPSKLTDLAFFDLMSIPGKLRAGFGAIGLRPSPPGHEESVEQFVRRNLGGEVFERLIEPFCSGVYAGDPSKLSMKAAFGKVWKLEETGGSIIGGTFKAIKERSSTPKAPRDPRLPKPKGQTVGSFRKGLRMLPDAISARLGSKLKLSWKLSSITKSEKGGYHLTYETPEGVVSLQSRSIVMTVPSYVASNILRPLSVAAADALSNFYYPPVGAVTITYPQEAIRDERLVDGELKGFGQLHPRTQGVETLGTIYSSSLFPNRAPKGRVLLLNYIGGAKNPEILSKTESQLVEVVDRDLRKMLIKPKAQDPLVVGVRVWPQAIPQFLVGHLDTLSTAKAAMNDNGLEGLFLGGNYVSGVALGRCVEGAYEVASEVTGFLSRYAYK
Described as above. The format is cell-based. On the procedure: as §1

For assay [3], the target named is T3, E. coli SASX38 strain having pCR-RC with tobacco resistant type protoporphyrinogen oxidase gene (Nicotiana tabacum, UniProt O24163, A174P/A191P/A231V/T382S).
T3 construct: expressed in transfected cells; host or cells: E. coli SASX38 (hemG-deficient) carrying pCR-RC
The description is as above. The format is cell-based. How it is done:
as §1

Assay [4] addresses T4, E. coli SASX38 strain having pBAtPX-RC with Arabidopsis thaliana resistant type protoporphyrinogen oxidase cDNA (Arabidopsis thaliana, UniProt P55826, A220V).
T4 construct: expressed in transfected cells; host or cells: E. coli SASX38 (hemG-deficient) carrying pBAtPX-RC (pBluescript SK(-))
The assay is described as above. The format is cell-based. Conditions: for R/S a) Arabidopsis thaliana: Resistant type/Wild type. How it is done: as §1

The test system of assay [5] is E. coli SASX38 strain having pCR-RC with tobacco resistant type protoporphyrinogen oxidase gene. The assay is described as above. It counts as cell-based, Nicotiana tabacum. Conditions: for R/S b) Tobacco: Resistant type/Wild type; for Superiority c): b/a: tobacco R/S over Arabidopsis thaliana R/S. How it is done: as §1
The subject of another assay is ETR-245. Kind of assay: MIC on MS agar medium, cross-resistance to herbicides. The format is cell-based, Nicotiana tabacum. The text has this:
(§2) Further, cross-resistance of a resistant strain tolerant to herbicides with various modes of action was examined. Sensitivity to fomesafen (trade mark: FLEX) and oxadiazon (trade mark: RONSTAR), which are photobleaching herbicide and accumulate protoporphyrin IX; pyrazoxyfen (trademark: PAICER) which is a chlorophyll synthesis inhibitor and causes bleaching; DPX-84 and bialaphos (trademark: BASTA) and glyphosate (trademark: ROUNDUP) which are an inhibitor of the amino acid synthesis; butachlor (trademark: MACHETE) which is a protein synthesis inhibitor; propanil (trademark: STAM) which is an inhibitor of light synthesis photochemical system II and paraquat (trademark: PREEGLOX) which is an inhibitor of photosystem I and produces an active oxygen was compared. Into MS agar medium containing each herbicides, each resistant strain was transplanted and minimum inhibition concentration (MIC) was measured. […] From the above results, ETR-056 was thought to have resistance to an active oxygen caused by overproduction of superoxide dismutase, and ETR-253 was thought to have resistance to many herbicides caused by decreasing of a membrane permeability, and ETR-245 was thought to have resistance caused by mutation of a target enzyme or overproduction of a target enzyme.
(§3) MIC of compound A to the sensitive cell lines, ETR-056, ETR-245 and ETR-253 were measured.

Another assay concerns ETR-253. The assay is described as above. It counts as cell-based, Nicotiana tabacum.
Source text: as §2, §3

The test system of the next assay is ETR-056. The assay is described as above. It counts as cell-based, Nicotiana tabacum.
Source text: as §2, §3

The next assay deals with Sensitive strain. The assay is described as above. The format is cell-based, Nicotiana tabacum. As to conditions: Sensitive strain.
Source text: as §2, §3

pIC50: −log10 of the molar value. Read-outs that look alike come from different tables or passages of the source.

T3 sequence (O24163 whole entry A174P/A191P/A231V/T382S): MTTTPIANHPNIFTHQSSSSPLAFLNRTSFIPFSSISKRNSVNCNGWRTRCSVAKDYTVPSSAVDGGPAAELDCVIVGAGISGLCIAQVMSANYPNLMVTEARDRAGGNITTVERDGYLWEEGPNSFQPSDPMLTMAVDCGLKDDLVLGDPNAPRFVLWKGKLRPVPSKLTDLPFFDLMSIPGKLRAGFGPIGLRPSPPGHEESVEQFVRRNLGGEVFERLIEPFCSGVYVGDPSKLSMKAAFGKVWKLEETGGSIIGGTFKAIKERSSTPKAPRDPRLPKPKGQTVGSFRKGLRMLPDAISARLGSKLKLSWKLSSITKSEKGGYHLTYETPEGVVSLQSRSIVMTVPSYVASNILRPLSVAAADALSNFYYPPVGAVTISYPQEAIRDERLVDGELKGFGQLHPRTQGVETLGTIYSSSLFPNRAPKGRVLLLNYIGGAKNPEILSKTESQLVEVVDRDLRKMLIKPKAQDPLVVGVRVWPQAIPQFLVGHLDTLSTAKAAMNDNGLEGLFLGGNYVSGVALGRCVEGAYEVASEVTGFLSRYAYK
T4 sequence (P55826 35-537 A220V): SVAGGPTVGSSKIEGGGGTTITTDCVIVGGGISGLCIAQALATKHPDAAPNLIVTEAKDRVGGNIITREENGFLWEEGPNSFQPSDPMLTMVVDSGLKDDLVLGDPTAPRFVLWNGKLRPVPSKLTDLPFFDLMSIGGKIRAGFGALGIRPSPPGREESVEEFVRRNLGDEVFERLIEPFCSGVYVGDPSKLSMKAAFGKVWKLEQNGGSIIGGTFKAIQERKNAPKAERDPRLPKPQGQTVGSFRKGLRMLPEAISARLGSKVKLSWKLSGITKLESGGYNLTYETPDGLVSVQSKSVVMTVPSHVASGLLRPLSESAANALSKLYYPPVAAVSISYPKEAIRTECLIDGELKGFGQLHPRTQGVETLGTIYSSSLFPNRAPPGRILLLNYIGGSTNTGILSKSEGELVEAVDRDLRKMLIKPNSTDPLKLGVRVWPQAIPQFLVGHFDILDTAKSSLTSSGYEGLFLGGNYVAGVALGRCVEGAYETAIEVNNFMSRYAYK

In general, pIC50 refers to the negative decadic logarithm of the IC50, by convention in mol/L. Low values mean a large IC50, high ones a small IC50. For `CCOC(=O)C(C)Nc1cc(-c2nn(C)c(OC(F)F)c2Cl)c(Cl)cc1Cl` (stereo not drawn) [Comp.B, ethyl 2-[5-(4-chloro-5-difluoromethoxy-1-methyl-1H-pyrazol-3-yl)-2,4-dichloro-phenylamino]propionate], the pIC50 is 7.68 in [1], 8.66 in [2], < 4.70 in assay [3] and 4.74 in assay [4]. Moreover, the “R/S a) Arabidopsis thaliana” value in [4] worked out at 860. Besides, the “R/S b) Tobacco” value in [5] is given as 9,100. In addition, the “Superiority c)” value in [5] is >10.6.
Turning to `COc1cc(-c2nn(C)c(OC(F)F)c2Cl)c(F)cc1Cl` [Comp.C, 4-chloro-3-(4-chloro-2-fluoro-5-methoxyphenyl)-5-difluoromethoxy-1-methyl-1H-pyrazole], the pIC50 is 8.52 in [1], 9.60 in assay [2], 5.66 in assay [3] and 5.74 in assay [4]. In addition, the “R/S a) Arabidopsis thaliana” value in assay [4] turned out to be 600. Besides, in assay [5], the “R/S b) Tobacco” value is given as 8,800. Also, in assay [5], the “Superiority c)” value was found to be 14.7.
Consider `C#CCOc1cc(-c2nn(C)c(OC(F)F)c2Cl)c(F)cc1Cl` [Comp.D, 4-chloro-3-[4-chloro-2-fluoro-5-(2-propynyl)oxyphenyl]-5-difluoromethoxy-1-methyl-1H-pyrazole], for which the pIC50 in assay [1] is 9.85; in [2], 10.57; in assay [3], 6.17; in assay [4] it was 6.55. Also, the “R/S a) Arabidopsis thaliana” value in [4] was 2,000. For the same compound, the “R/S b) Tobacco” value in assay [5] is on record as 25,000. Also, the “Superiority c)” value in assay [5] is 12.5.
With `CCOC(=O)C(C)Oc1cc(-c2nn(C)c(OC(F)F)c2Cl)c(F)cc1Cl` (stereo not drawn) [Comp.E, ethyl 2-[2-chloro-5-(4-chloro-5-difluoromethoxy-1-methyl-1H-pyrazol-3-yl)-4-fluorophenoxy]propionate], the pIC50 in [1] was 8.38; in assay [2] it was 9.28; in assay [3], 5.20; in [4] it was 5.40. In assay [4], the “R/S a) Arabidopsis thaliana” value amounted to 950. Besides, in assay [5], the “R/S b) Tobacco” value is 12,000. For the same compound, the “Superiority c)” value in assay [5] worked out at 12.6.
`CC(C)OC(=O)c1cc(-c2nn(C)c(C(F)(F)F)c2Br)c(F)cc1Cl` [Comp.F, 1-methylethyl 5-[4-bromo-1-methyl-5-(trifluoromethyl)-1H-pyrazol-3-yl]-2-chloro-4-fluorobenzoate]: the IC50 came to 23 nM in assay [1] (E. coli liquid culture method with shaking, read-out: I50 (nM) Arabidopsis thaliana Wild) and 3.2 nM in [2] (E. coli liquid culture method with shaking, read-out: I50 (nM) Tobacco Wild). In addition, the negative-log IC50 (pIC50) in assay [3] was 4.82; in [4], 5.19. Moreover, in assay [4], the “R/S a) Arabidopsis thaliana” value came out at 280. Also, in assay [5], the “R/S b) Tobacco” value is recorded as 4,700. Moreover, the “Superiority c)” value in [5] was 16.8.
`Cn1nc(-c2ccc(Cl)cc2F)c(Cl)c1OC(F)F` [Comp.G, 4-chloro-3-(4-chloro-2-fluorophenyl)-5-difluorom ethoxy-1-methyl-1H-pyrazole]: the negative logarithm of the IC50 (pIC50) is 7.72 in assay [1], 8.51 in [2], 4.77 in assay [3] and 5.06 in [4]. For the same compound, the “R/S a) Arabidopsis thaliana” value in assay [4] turned out to be 460. In assay [5], the “R/S b) Tobacco” value is given as 5,500. In addition, in assay [5], the “Superiority c)” value was 12.0.
As to `COC(=O)c1ccccc1CS(=O)(=O)NC(=O)Nc1nc(OC)cc(OC)n1` [DPX-84], the “MIC (ppm)” value in the assay with ETR-245 came out at 0.01 ppm; in the assay on ETR-253, 0.1 ppm; in the assay with ETR-056, 0.01 ppm; in the assay with Sensitive strain it was 0.01 ppm.
`C[C@H](NC(=O)[C@H](C)NC(=O)[C@@H](N)CCP(C)(=O)O)C(=O)O` [bialaphos]: the “MIC (ppm)” value against ETR-245 stood at 1 ppm; in the assay on ETR-253, 10 ppm; with ETR-056 it was 1 ppm; against Sensitive strain, 10 ppm.
As for `CCCCOCN(C(=O)CCl)c1c(CC)cccc1CC` [butachlor], the “MIC (ppm)” value with ETR-245, in the assay on ETR-253, with ETR-056 and against Sensitive strain was 100 ppm in each case.
Take `CS(=O)(=O)NC(=O)c1cc(Oc2ccc(C(F)(F)F)cc2Cl)ccc1[N+](=O)[O-]` [fomesafen]: the “MIC (ppm)” value in the assay with ETR-245 is listed as 4 ppm; in the assay on ETR-253, 4 ppm; in the assay on ETR-056 it was 4 ppm; in the assay with Sensitive strain, 0.4 ppm.
On to `O=C(O)CNCP(=O)(O)O` [glyphosate], for which the “MIC (ppm)” value against ETR-245 is listed as 230 ppm; in the assay with ETR-253, 1000 ppm; against ETR-056 it was 230 ppm; in the assay with Sensitive strain, 230 ppm.
`CC(C)Oc1cc(-n2nc(C(C)(C)C)oc2=O)c(Cl)cc1Cl` [oxadiazon]: the “MIC (ppm)” value with ETR-245 came out at 1000 ppm; with ETR-253, 1000 ppm; with ETR-056, 1000 ppm; with Sensitive strain, 1 ppm.
Regarding `C[n+]1ccc(-c2cc[n+](C)cc2)cc1` [paraquat], the “MIC (ppm)” value was 10 ppm in the assay with ETR-245, 10 ppm against ETR-253, 100 ppm in the assay on ETR-056 and 10 ppm in the assay on Sensitive strain.
On to `CCC(=O)Nc1ccc(Cl)c(Cl)c1` [propanil], for which the “MIC (ppm)” value against ETR-245, with ETR-253, against ETR-056 and in the assay with Sensitive strain was 100 ppm in each case.
Turning to `Cc1nn(C)c(OCC(=O)c2ccccc2)c1C(=O)c1ccc(Cl)cc1Cl` [pyrazoxyfen], the “MIC (ppm)” value against ETR-245 came to 100 ppm; against ETR-253, 200 ppm; against ETR-056, 100 ppm; with Sensitive strain, 100 ppm.

The values above are taken from patent publication US6905852B1, “Herbicide-resistant protoporphyrinogen oxidase isolated from Nicotiana tabacum” (Nihon Nohyaku Co., Ltd., priority 1997, dated 2005).
